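In this assay, cells in 96-well plates receive the compound at five concentrations for 48 hours. Endpoints are linearly interpolated between the surrounding concentrations. Abbreviation: GI50, concentration required for 50% inhibition of growth. TGI is the concentration that stops growth completely.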
Tests used:
Test in all cases: NCI-60 cell line screen, 48 h
786-0 renal = system: 786-0 renal
A498 renal = system: A498 renal
ACHN renal = system: ACHN renal
BT-549 breast = system: BT-549 breast
CAKI-1 renal = system: CAKI-1 renal
CCRF-CEM leukemia = system: CCRF-CEM leukemia
COLO 205 colon = system: COLO 205 colon
DU-145 prostate = system: DU-145 prostate
EKVX NSCLC = system: EKVX NSCLC
HCC-2998 colon = system: HCC-2998 colon
HCT-116 colon = system: HCT-116 colon
HCT-15 colon = system: HCT-15 colon
HL-60(TB) leukemia = system: HL-60(TB) leukemia
HOP-62 NSCLC = system: HOP-62 NSCLC
HOP-92 NSCLC = system: HOP-92 NSCLC
HS 578T breast = system: HS 578T breast
HT29 colon = system: HT29 colon
IGROV1 ovarian = system: IGROV1 ovarian
K-562 leukemia = system: K-562 leukemia
KM12 colon = system: KM12 colon
LOX IMVI melanoma = system: LOX IMVI melanoma
M14 melanoma = system: M14 melanoma
MALME-3M melanoma = system: MALME-3M melanoma
MCF7 breast = system: MCF7 breast
MDA-MB-231 breast = system: MDA-MB-231 breast
MDA-MB-435 = system: MDA-MB-435
MOLT-4 leukemia = system: MOLT-4 leukemia
NCI-H226 lung = system: NCI-H226 lung

**Q.** With `Cc1cc(C)c2c(N)c3cccc(C)c3nc2n1` as the compound, how does the GI50 (786-0 renal) read?
**A.** 2.35 µM

**Q.** And the TGI (786-0 renal)?
**A.** 8.47 µM

**Q.** And the GI50 (A498 renal)?
**A.** 1.48 µM

**Q.** What about the TGI (A498 renal) of the same compound?
**A.** 3.11 µM

**Q.** What about the GI50 (ACHN renal) of the same compound?
**A.** 0.852 µM

**Q.** What about the TGI (ACHN renal) of the same compound?
**A.** 5.08 µM

**Q.** What about the GI50 (BT-549 breast) of the same compound?
**A.** 3.48 µM

**Q.** And the TGI (BT-549 breast)?
**A.** 20.2 µM

**Q.** And the GI50 (CAKI-1 renal)?
**A.** 2.25 µM

**Q.** And the TGI (CAKI-1 renal)?
**A.** 8.35 µM

**Q.** And the GI50 (CCRF-CEM leukemia)?
**A.** 3.84 µM

**Q.** What about the TGI (CCRF-CEM leukemia) of the same compound?
**A.** 17 µM

**Q.** What about the GI50 (COLO 205 colon) of the same compound?
**A.** 0.702 µM

**Q.** What about the TGI (COLO 205 colon) of the same compound?
**A.** 2.17 µM

**Q.** What about the GI50 (DU-145 prostate) of the same compound?
**A.** 2.33 µM

**Q.** What about the TGI (DU-145 prostate) of the same compound?
**A.** 6.5 µM

**Q.** What about the GI50 (EKVX NSCLC) of the same compound?
**A.** 3.17 µM

**Q.** And the TGI (EKVX NSCLC)?
**A.** 33.5 µM

**Q.** What about the GI50 (HCC-2998 colon) of the same compound?
**A.** 1.94 µM

**Q.** What about the TGI (HCC-2998 colon) of the same compound?
**A.** 4.92 µM

**Q.** What about the GI50 (HCT-116 colon) of the same compound?
**A.** 0.667 µM

**Q.** And the TGI (HCT-116 colon)?
**A.** 3.85 µM

**Q.** What about the GI50 (HCT-15 colon) of the same compound?
**A.** 1.76 µM

**Q.** What about the TGI (HCT-15 colon) of the same compound?
**A.** 6.5 µM

**Q.** What about the GI50 (HL-60(TB) leukemia) of the same compound?
**A.** 3.67 µM

**Q.** And the TGI (HL-60(TB) leukemia)?
**A.** 16.4 µM

**Q.** What about the GI50 (HOP-62 NSCLC) of the same compound?
**A.** 1.81 µM

**Q.** What about the TGI (HOP-62 NSCLC) of the same compound?
**A.** 5.03 µM

**Q.** What about the GI50 (HOP-92 NSCLC) of the same compound?
**A.** 2.24 µM

**Q.** What about the TGI (HOP-92 NSCLC) of the same compound?
**A.** 6.96 µM

**Q.** What about the GI50 (HS 578T breast) of the same compound?
**A.** 3.25 µM

**Q.** And the TGI (HS 578T breast)?
**A.** 25.1 µM

**Q.** What about the GI50 (HT29 colon) of the same compound?
**A.** 0.994 µM

**Q.** What about the TGI (HT29 colon) of the same compound?
**A.** 5.27 µM

**Q.** What about the GI50 (IGROV1 ovarian) of the same compound?
**A.** 3.17 µM

**Q.** And the TGI (IGROV1 ovarian)?
**A.** > 100 µM

**Q.** And the GI50 (K-562 leukemia)?
**A.** 2.36 µM

**Q.** What about the TGI (K-562 leukemia) of the same compound?
**A.** 8.71 µM

**Q.** What about the GI50 (KM12 colon) of the same compound?
**A.** 3.32 µM

**Q.** What about the TGI (KM12 colon) of the same compound?
**A.** 9.69 µM

**Q.** And the GI50 (LOX IMVI melanoma)?
**A.** 1.7 µM

**Q.** What about the TGI (LOX IMVI melanoma) of the same compound?
**A.** 4.62 µM

**Q.** And the GI50 (M14 melanoma)?
**A.** 1.58 µM

**Q.** And the TGI (M14 melanoma)?
**A.** 3.24 µM

**Q.** What about the GI50 (MALME-3M melanoma) of the same compound?
**A.** 1.93 µM

**Q.** And the TGI (MALME-3M melanoma)?
**A.** 4.38 µM

**Q.** And the GI50 (MCF7 breast)?
**A.** 2.14 µM

**Q.** What about the TGI (MCF7 breast) of the same compound?
**A.** 10.3 µM

**Q.** What about the GI50 (MDA-MB-231 breast) of the same compound?
**A.** 1.56 µM

**Q.** And the TGI (MDA-MB-231 breast)?
**A.** 6.27 µM

**Q.** What about the GI50 (MDA-MB-435) of the same compound?
**A.** 2.26 µM

**Q.** What about the TGI (MDA-MB-435) of the same compound?
**A.** 8.62 µM

**Q.** And the GI50 (MOLT-4 leukemia)?
**A.** 2.17 µM

**Q.** And the TGI (MOLT-4 leukemia)?
**A.** 10 µM

**Q.** And the GI50 (NCI-H226 lung)?
**A.** 1.2 µM

**Q.** What about the TGI (NCI-H226 lung) of the same compound?
**A.** 4.49 µM
